Reference: paper PMC8138313, “Identification, Selection and Immune Assessment of Liver Stage CD8 T Cell Epitopes From Plasmodium falciparum” (Frontiers in Immunology, 2021)
pIC50: −log10 of the molar value. Where a SMILES comes first, the peptide text is derived from it.

Experiments:
Assay in all cases: HLA class I binding assay (cell-free competition, fluorescence polarization)
HLA A*2402 = HLA A*2402 (Homo sapiens, UniProt P04439, D101N/D140Y/D185E/E176V/E190D/F33S/G103R/G107R/I119L/I121M/I306V/K335N/L105A/L180Q/L300P/N151K/N90K/Q86E/Q94H/R106L/R138H/R89G/T104I/T345S/V100E/W191G/Y123F)
HLA B*0702 = HLA B*0702 (Homo sapiens, UniProt P01889)
HLA B*4402 = HLA B*4402 (Homo sapiens, UniProt P01889, A223V/A65T/A93T/A95T/D201E/D98Y/E176V/E187L/E204Q/E69K/G107R/H137Y/K202T/L105A/L119I/N104T/N87E/Q56L/Q94N/R106L/R155S/R180D/S101N/S121R/S35A/S48T/T118I/V36M/W191S/Y140D/Y91S)

| Structure (SMILES) | pIC50 (HLA A*2402) | pIC50 (HLA B*0702) | pIC50 (HLA B*4402) |
| --- | --- | --- | --- |
| CC(C)C[C@H](NC(=O)[C@H](Cc1ccccc1)NC(=O)[C@@H]1CCCN1C(=O)[C@@H](N)Cc1c[nH]cn1)C(=O)N[C@@H](CCCCN)C(=O)N[C@@H](CO)C(=O)NCC(=O)N[C@@H](Cc1ccccc1)C(=O)N[C@H](C(=O)N[C@@H](Cc1ccccc1)C(=O)O)[C@@H](C)O (H-HPFLKSGFTF-OH) | 4.98 | 6.65 | < 3.00 |
| CSCC[C@H](NC(=O)[C@H](CCC(=O)O)NC(=O)[C@@H](N)[C@@H](C)O)C(=O)N[C@@H](Cc1ccccc1)C(=O)N[C@@H](CCCCN)C(=O)N[C@@H](CC(C)C)C(=O)N[C@@H](CCCNC(=N)N)C(=O)N[C@@H](CC(C)C)C(=O)N[C@@H](CC(N)=O)C(=O)N[C@@H](CC(C)C)C(=O)O (H-TEMFKLRLNL-OH) | 4.24 | < 3.00 | 4.26 |
